The text below walks through data of patent US12637440B2, “Amide derivative useful as diacylglycerol acyltransferase 2 inhibitor, and use thereof” (LG CHEM, LTD., priority 2019, dated 2026).

pIC50: −log10 of the molar value.

For the experiment, the target named is T1, Recombinant human DGAT2 protein (Homo sapiens, UniProt Q96PD7).
T1 construct: FLAG (DYKDDDDK); (N); made in house; host or cells: Sf-21 insect cells (BacPAK baculovirus system); used as a membrane preparation
T1 sequence (Q96PD7 1-388): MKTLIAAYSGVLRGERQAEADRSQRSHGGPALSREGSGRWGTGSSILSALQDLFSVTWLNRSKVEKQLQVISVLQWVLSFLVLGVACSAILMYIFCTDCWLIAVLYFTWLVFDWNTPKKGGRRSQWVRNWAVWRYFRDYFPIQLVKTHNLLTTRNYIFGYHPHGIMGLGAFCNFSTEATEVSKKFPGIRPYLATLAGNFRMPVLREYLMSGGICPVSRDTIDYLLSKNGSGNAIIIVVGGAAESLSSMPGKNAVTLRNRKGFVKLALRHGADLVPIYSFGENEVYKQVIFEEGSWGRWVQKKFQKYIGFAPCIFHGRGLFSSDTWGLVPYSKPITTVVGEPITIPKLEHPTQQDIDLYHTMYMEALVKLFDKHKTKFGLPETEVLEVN
The experiment can be described thus: Measurement of inhibitory effect against DGAT2 enzyme activity (SPA, Phospholipid FlashPlate, [14C]-TG production). Format: biochemical. The conditions noted are these: concentration inhibiting [14C]-labeled triacyl glycerol (TG) production by 50%; 2 μg DGAT2-membrane protein from Sf-21 cells, 37° C. In short, it runs like this:
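Membranes from Sf-21 cells expressing human DGAT2 (2 μg) preincubated 20 min at 37 °C with compound (3 nM–10 μM, 1% DMSO) in HEPES/MgCl2/BSA with 50 μM 1,2-dioleoyl glycerol, then 1 μM [14C]oleoyl-CoA for 15 min. [14C]-TG measured by SPA FlashPlate; inhibition as % of untreated control.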

As to `CCOc1ccccc1O[C@@H]1CCCN(c2cccc(NC(=O)Cc3ccc(CC(C)(C)C(=O)O)cc3)n2)C1` [Example 71], the negative-log IC50 (pIC50) is 6.60.

Consider `CCOc1ccccc1O[C@@H]1CCCN(c2cc(C(F)(F)F)nc(NC(=O)Cc3ccc(CC(C)(C)C(=O)O)cc3)n2)C1` [Example 72], for which the pIC50 was 5.74.

With `CCOc1ccccc1O[C@@H]1CCCN(c2cncc(NC(=O)C(C)(C)c3ccc(CCC(=O)O)cc3)n2)C1` [Example 73, (R)-3-(4-(1-((6-(3-(2-ethoxyphenoxy)piperidin-1-yl)pyrazin-2-yl)amino)-2-methyl-1-oxopropan-2-yl)phenyl)propanoic acid], the pIC50 was 6.51.

With `C=C(CNc1ccc(CCC(=O)O)cc1)C(=O)Nc1cncc(N2CCC[C@@H](Oc3ccccc3OCC)C2)n1` [Example 74, (R)-3-(4-((2-((6-(3-(2-ethoxyphenoxy)piperidin-1-yl)pyrazin-2-yl)carbamoyl)allyl)amino)phenyl)propanoic acid], the pIC50 is 5.89.

Consider `CCOc1ccccc1O[C@@H]1CCCN(c2cncc(NC(=O)C3CCN(c4ncc(C(=O)O)cn4)CC3)n2)C1` [Example 75, (R)-2-(4-((6-(3-(2-ethoxyphenoxy)piperidin-1-yl)pyrazin-2-yl)carbamoyl)piperidin-1-yl)pyrimidine-5-carboxylic acid], for which the pIC50 was 5.92.

Consider `CCOc1cccnc1O[C@@H]1CCCN(c2cncc(NC(=O)[C@@H]3CCCN(c4cccc(CC(C)(C)C(=O)O)c4)C3)n2)C1` [Example 76], for which the negative-log IC50 (pIC50) was 6.89.

In the case of `CCOc1ccccc1O[C@@H]1CCCN(c2ccnc(NC(=O)C(C)(C)c3ccc(CC(C)(C)C(=O)O)cc3)n2)C1` [Example 77, (R)-3-(4-(1-((4-(3-(2-ethoxyphenoxy)piperidin-1-yl)pyrimidin-2-yl)amino)-2-methyl-1-oxopropan-2-yl)phenyl)-2,2-dimethylpropanoic acid], the pIC50 is 6.39.

As to `CCOc1cccnc1O[C@@H]1CCCN(c2ccnc(NC(=O)C(C)(C)c3ccc(CC(C)(C)C(=O)O)cc3)n2)C1` [Example 78, (R)-3-(4-(1-((4-(3-((3-ethoxypyridin-2-yl)oxy)piperidin-1-yl)pyrimidin-2-yl)amino)-2-methyl-1-oxopropan-2-yl)phenyl)-2,2-dimethylpropanoic acid], the pIC50 was 5.60.

On to `CCOc1ccccc1O[C@@H]1CCCN(c2cncc(NC(=O)C3CCN(c4ccc(CC(=O)O)cc4)CC3)n2)C1` [Example 79, (R)-2-(4-(4-((6-(3-(2-ethoxyphenoxy)piperidin-1-yl)pyrazin-2-yl)carbamoyl)piperidin-1-yl)phenyl)acetic acid], for which the pIC50 was 6.03.

For the compound `CCOc1ccccc1O[C@@H]1CCCN(c2cncc(NC(=O)C3CCN(c4ccc(C(C)(C)C(=O)O)cn4)CC3)n2)C1` [Example 81, (R)-2-(6-(4-((6-(3-(2-ethoxyphenoxy)piperidin-1-yl)pyrazin-2-yl)carbamoyl)piperidin-1-yl)pyridin-3-yl)-2-methylpropanoic acid], the pIC50 was 6.13.

On to `CCOc1ccccc1O[C@@H]1CCCN(c2cncc(NC(=O)C3CCN(c4nnn(CC(=O)O)n4)CC3)n2)C1` [Example 82, (R)-2-(5-(4-((6-(3-(2-ethoxyphenoxy)piperidin-1-yl)pyrazin-2-yl)carbamoyl)piperidin-1-yl)-2H-tetrazol-2-yl)acetic acid], for which the pIC50 was 5.17.

As for `CCOc1ccccc1O[C@@H]1CCCN(c2cncc(NC(=O)C3CCN(C(=O)CCC(=O)O)CC3)n2)C1` [Example 83, (R)-4-(4-((6-(3-(2-ethoxyphenoxy)piperidin-1-yl)pyrazin-2-yl)carbamoyl)piperidin-1-yl)-4-oxobutanoic acid], the pIC50 is less than 5.00.

On to `CCOc1ccccc1O[C@@H]1CCCN(c2cncc(NC(=O)C3CCN(CC(=O)O)CC3)n2)C1` [Example 84, (R)-2-(4-((6-(3-(2-ethoxyphenoxy)piperidin-1-yl)pyrazin-2-yl)carbamoyl)piperidin-1-yl)acetic acid], for which the pIC50 was less than 5.00.

Regarding `CCOc1ccccc1O[C@@H]1CCCN(c2cncc(NC(=O)[C@@H]3CCCN(c4cccc(CC(C)(C)C(=O)O)c4)C3)n2)C1` [Example 85, 3-(3-((R)-3-((6-((R)-3-(2-ethoxyphenoxy)piperidin-1-yl)pyrazin-2-yl)carbamoyl)piperidin-1-yl)phenyl)-2,2-dimethylpropanoic acid], the pIC50 is 7.38.

In the case of `CCOc1ccccc1O[C@@H]1CCCN(c2cncc(NC(=O)C(C)(C)c3ccc(N4CCC(C(=O)O)CC4)cc3)n2)C1` [Example 86, (R)-1-(4-(1-((6-(3-(2-ethoxyphenoxy)piperidin-1-yl)pyrazin-2-yl)amino)-2-methyl-1-oxopropan-2-yl)phenyl)piperidine-4-carboxylic acid], the negative logarithm of the IC50 (pIC50) is less than 5.00.

For `CCOc1ccccc1O[C@@H]1CCCN(c2cncc(NC(=O)C3CCN(c4ccc(C(=O)O)cn4)C3)n2)C1` (stereo partly drawn) [Example 87, 6-(3-((6-((R)-3-(2-ethoxyphenoxy)piperidin-1-yl)pyrazin-2-yl)carbamoyl)pyrrolidin-1-yl)nicotinic acid], the pIC50 was 6.80.

Take `CCOc1ccccc1O[C@@H]1CCCN(c2cncc(NC(=O)C3(C)CCNC3)n2)C1` (stereo partly drawn) [Example 88, N-(6-((R)-3-(2-ethoxyphenoxy)piperidin-1-yl)pyrazin-2-yl)-3-methylpyrrolidine-3-carboxamide]: the pIC50 is 5.21.

For `CCOc1ccccc1O[C@@H]1CCCN(c2cncc(NC(=O)C3(C)CCN(c4ccc(C(=O)O)cn4)C3)n2)C1` (stereo partly drawn) [Example 89, 6-(3-((6-((R)-3-(2-ethoxyphenoxy)piperidin-1-yl)pyrazin-2-yl)carbamoyl)-3-methylpyrrolidin-1-yl)nicotinic acid], the pIC50 was 6.23.

Turning to `CC(C)Oc1ccccc1O[C@@H]1CCCN(c2cncc(NC(=O)Cc3ccc(CC(=O)O)cc3)n2)C1` [Example 90, (R)-2-(4-(2-((6-(3-(2-isopropoxyphenoxy)piperidin-1-yl)pyrazin-2-yl)amino)-2-oxoethyl)phenyl)acetic acid], the pIC50 was less than 5.00.

As to `COc1ccccc1O[C@@H]1CCCN(c2cncc(NC(=O)CCc3ccc(C(C)(C)C(=O)O)cc3)n2)C1` [Example 91, (R)-2-(4-(3-((6-(3-(2-methoxyphenoxy)piperidin-1-yl)pyrazin-2-yl)amino)-3-oxopropyl)phenyl)-2-methylpropanoic acid], the pIC50 was 6.43.

In the case of `CC(C)(C(=O)O)c1ccc(CCC(=O)Nc2cncc(N3CCC[C@@H](Oc4ccccc4OCCF)C3)n2)cc1` [Example 93, (R)-2-(4-(3-((6-(3-(2-(2-fluoroethoxy)phenoxy)piperidin-1-yl)pyrazin-2-yl)amino)-3-oxopropyl)phenyl)-2-methylpropanoic acid], the negative logarithm of the IC50 (pIC50) was 6.72.

For `CC(C)(Cc1ccc(CC(=O)Nc2cncc(N3CCC[C@@H](Oc4ccccc4OCCF)C3)n2)cc1)C(=O)O` [Example 94, (R)-3-(4-(2-((6-(3-(2-(2-fluoroethoxy)phenoxy)piperidin-1-yl)pyrazin-2-yl)amino)-2-oxoethyl)phenyl)-2,2-dimethylpropanoic acid], the negative-log IC50 (pIC50) was 6.96.

For `CC(C)(Cc1ccc(CC(=O)Nc2cncc(N3CCC[C@@H](Oc4ccccc4OC4CC4)C3)n2)cc1)C(=O)O` [Example 95, (R)-3-(4-(2-((6-(3-(2-cyclopropoxyphenoxy)piperidin-1-yl)pyrazin-2-yl)amino)-2-oxoethyl)phenyl)-2,2-dimethylpropanoic acid], the negative logarithm of the IC50 (pIC50) was 6.82.

In the case of `CC(C)(Cc1ccc(CC(=O)Nc2cncc(N3CCC[C@@H](Oc4ccccc4OC4CCC4)C3)n2)cc1)C(=O)O` [Example 96, (R)-3-(4-(2-((6-(3-(2-cyclobutoxyphenoxy)piperidin-1-yl)pyrazin-2-yl)amino)-2-oxoethyl)phenyl)-2,2-dimethylpropanoic acid], the pIC50 was 6.70.

Regarding `CC(C)(C(=O)O)c1ccc(CCC(=O)Nc2cncc(N3CCC[C@@H](Oc4ccccc4OC4CCC4)C3)n2)cc1` [Example 98, (R)-2-(4-(3-((6-(3-(2-cyclobutoxyphenoxy)piperidin-1-yl)pyrazin-2-yl)amino)-3-oxopropyl)phenyl)-2-methylpropanoic acid], the negative logarithm of the IC50 (pIC50) is 7.09.

Take `CCOc1ccccc1O[C@@H]1CCCN(c2cncc(NC(=O)Cc3ccc(OCC(=O)O)cc3)n2)C1` [Example 99]: the negative-log IC50 (pIC50) is 5.54.

Regarding `CCOc1ccccc1O[C@@H]1CCCN(c2cncc(NC(=O)COc3ccc(CC(=O)O)cc3)n2)C1` [Example 100, (R)-2-(4-(2-((6-(3-(2-ethoxyphenoxy)piperidin-1-yl)pyrazin-2-yl)amino)-2-oxoethoxy)phenyl)acetic acid], the pIC50 is 6.23.

In the case of `CCOc1ccccc1O[C@@H]1CCCN(c2cncc(NC(=O)COc3ccc(C(C)C(=O)O)cc3)n2)C1` (stereo partly drawn) [Example 101, 2-(4-(2-((6-((R)-3-(2-ethoxyphenoxy)piperidin-1-yl)pyrazin-2-yl)amino)-2-oxoethoxy)phenyl)propanoic acid], the pIC50 was 6.49.

For `CCOc1ccccc1O[C@@H]1CCCN(c2cncc(NC(=O)Cc3ccc(OCC(C)(C)C(=O)O)cc3)n2)C1` [Example 102], the negative logarithm of the IC50 (pIC50) was 6.35.

Take `CCOc1ccccc1O[C@@H]1CCCN(c2cncc(NC(=O)Cc3ccc(O[C@H](C)C(=O)O)cc3)n2)C1` [Example 103, (R)-2-(4-(2-((6-((R)-3-(2-ethoxyphenoxy)piperidin-1-yl)pyrazin-2-yl)amino)-2-oxoethyl)phenoxy)propanoic acid]: the pIC50 was 6.21.
